Experimental data from patent US7091351B2, “Vanadium compounds for treating cancer” (Parker Hughes Institute, priority 1998, dated 2006).
Read-outs that look alike come from different tables or passages of the source.

Columns and labels:
Format in all cases: cell-based, human
BT20 breast cancer cells = assay: Cytotoxic activity of oxovanadium(IV) compounds, BT20; details: read-out: Cytotoxic Activity BT20
Protocol: (§1) The cytotoxicity of oxovanadium (W) complexes listed in Table 6 were tested against 9 different human cancer cell lines was performed using the MTT (3-[4,5-dimethylthiazol-2-yl]-2,5-diphenyl tetrazolium bromide) assay (Boehringer Mannheim Corp., Indianapolis, Ind.) as described previously (20). Briefly, exponentially growing tumor cells were seeded into a 96-well plate at a density of 4×10^4cells/well and incubated with medium containing the oxovanadium(IV) compounds concentrations ranging from 0.1 to 250 μM for 48 hours at 37° C. in a humidified 5% CO2 atmosphere. Triplicate wells were used for each treatment. To each well, 10 μl of MTT (0.5 mg/ml final concentration) was added and the plates were incubated at 37° C. for 4 hours to allow MTT to form formazan crystals by reacting with metabolically active cells . The formazan crystals were solubilized overnight at 37° C. in a solution containing 10% SDS in 0.01 M HCl. The absorbence of each well was measured in a microplate reader (Labsystems) at 540 nm and a reference wavelength of 690 nm. To translate the OD540 values into the number of live cells in each well, the OD540 values were compared to those on standard OD540—versus—cell number curves generated for each cell line. The percent survival was calculated using the formula: % survival=Live cell number[test]/Live cell number [control]×100. The IC50 values were calculated by non-linear regression analysis using an Graphpad Prism software version 2.0 (Graphpad Software, Inc., San Diego, Calif.).

NALM-6 leukemia cells = assay: Mitochondrial transmembrane potential, JC-1 staining, flow cytometry
Protocol: To measure the changes in mitochondria, NALM-6 cells were incubated with compound 29 at concentrations ranging from 0.1 μM to 1 μM for 24 hr, 48 hr, 72 hr or 96 hr, stained with specific fluorescent dyes and analyzed with flow cytometer. Mitochondrial membrane potential (ΔΨm) was measured using two dyes including a lipophollic cation 5,5′,6,6′-tetrachloro-1,1′,3,3′-tetraethlybenzimidazolylcarbocyanine iodide (JC-1; Molecular probes, Eugene, Oreg.) and a cyanine dye, 1,1′,3,3,3′,3′-hexamethylindodicarbocyanine iodide [DiIC1(5); Molecular probes] as earlier described (22). JC-1 can enter the cells, and selectively mitochondria, and has been used to assess ΔΨm in a variety of studies (23,24). JC-1 is a monomer at 527 nm after being excited at 490 nm; with polarization of ΔΨm, J-aggregates are formed that shift emission to 590 nm (23, 24). This can be detected on a flow cytometer by assessing the green signal (at 527 nm) and green-orange signal (at 590 nm) simultaneously, creating an index of the number of cells polarized and depolarized mitochondria. The treated and control cells were washed and plated in a 6-well plate at 1×10^6 cells in fresh medium. JC-1 was added at a concentration of 10 μg/ml, and cells were incubated for 10 min in the dark at room temp. Cells were then washed twice with ice-cold PBS and immediately analyzed using Becton Dickinson (San Jose, Calif.) Calibur flow cytometer. At least 2×10^3 cells were analyzed to determine the percentage of cells with polarized and depolarized mitochondria. DiIC1(5), a cyanine dye is amphioatheic and cationic that concentrate in energized mitochondria and has been used in a variety of studies to measure the mitochondrial membrane potential (25–27). NALM-6 cells were stained with DiIC1(5) at 40 nM concentration for 30 min in the dark as described for JC-1. The cells were analyzed using Vantage Becton Dickinson cell sorter equipped with HeNe laser with excitation at 635 nm and the fluorescence was collected at 666 nm.

[1] = test system: 64cp5 testicular cancer cells; assay: Cytotoxic activity of oxovanadium(IV) compounds, 64cp5; details: read-out: Cytotoxic Activity 64cp5
Protocol: as §1

NALM-6 cells = assay: MTT cytotoxicity assay of oxovanadium(IV) compounds, NALM-6; details: 48 hr
Protocol: as §1

## bis(4,7-dimethyl-1,10-phenanthroline)sulfatooxovanadium(IV) [Compound 29]
BT20 breast cancer cells
  IC50: 1500 nM
NALM-6 leukemia cells; 500 nM, 48 hr (vehicle 98.6%)
  fraction of JC-1 red/orange fluorescence-positive cells, 48 hr: 56.1%
NALM-6 leukemia cells; 500 nM, 72 hr (vehicle 98.6%)
  fraction of JC-1 red/orange fluorescence-positive cells, 72 hr: 8.4%
NALM-6 leukemia cells; 24 hr treatment, read-out: average EC50 for depolarization of mitochondria (JC-1 red/orange fluorescence), 24 hr
  EC50: 4200 nM
NALM-6 leukemia cells; 48 hr treatment, read-out: average EC50 for depolarization of mitochondria (JC-1 red/orange fluorescence), 48 hr
  EC50: 500 nM
[1]
  IC50: 750 nM
NALM-6 cells
  IC50: 200 ± 30 nM
